Measurements reported in patent US20150307520A1, “NOVEL HETEROARYL AND HETEROCYCLE COMPOUNDS, COMPOSITIONS AND METHODS THEREOF” (HUTCHISON MEDIPHARMA LIMITED, priority 2012, published 2015).

Key:
Type in all cases: biochemical
p110δ/p85α = p110δ/p85α (Homo sapiens, UniProt O00329); assay: Transcreener KINASE Assay, kinase inhibition of p110δ/p85α; conditions: for PI3Kδ IH % @ 1 uM: 1 uM test compound; for IC50: read-out: PI3Kδ IC50
In short: (§1)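 Kinase reactions run 80 min at room temperature, pH buffered with 50 mM HEPES plus 3 mM MgCl2 and 0.03% CHAPS; the PIP2/ATP mix added was 30 uM/10 uM. Generated ADP is then read by FP immunoassay.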

p110β/p85α = p110β/p85α (Homo sapiens, UniProt P42338); assay: Transcreener KINASE Assay, kinase inhibition of p110β/p85α; conditions: for PI3Kβ IH % @ 1 uM: 1 uM test compound; for IC50: read-out: PI3Kβ IC50
p110β/p85α, sequence (P42338 whole entry): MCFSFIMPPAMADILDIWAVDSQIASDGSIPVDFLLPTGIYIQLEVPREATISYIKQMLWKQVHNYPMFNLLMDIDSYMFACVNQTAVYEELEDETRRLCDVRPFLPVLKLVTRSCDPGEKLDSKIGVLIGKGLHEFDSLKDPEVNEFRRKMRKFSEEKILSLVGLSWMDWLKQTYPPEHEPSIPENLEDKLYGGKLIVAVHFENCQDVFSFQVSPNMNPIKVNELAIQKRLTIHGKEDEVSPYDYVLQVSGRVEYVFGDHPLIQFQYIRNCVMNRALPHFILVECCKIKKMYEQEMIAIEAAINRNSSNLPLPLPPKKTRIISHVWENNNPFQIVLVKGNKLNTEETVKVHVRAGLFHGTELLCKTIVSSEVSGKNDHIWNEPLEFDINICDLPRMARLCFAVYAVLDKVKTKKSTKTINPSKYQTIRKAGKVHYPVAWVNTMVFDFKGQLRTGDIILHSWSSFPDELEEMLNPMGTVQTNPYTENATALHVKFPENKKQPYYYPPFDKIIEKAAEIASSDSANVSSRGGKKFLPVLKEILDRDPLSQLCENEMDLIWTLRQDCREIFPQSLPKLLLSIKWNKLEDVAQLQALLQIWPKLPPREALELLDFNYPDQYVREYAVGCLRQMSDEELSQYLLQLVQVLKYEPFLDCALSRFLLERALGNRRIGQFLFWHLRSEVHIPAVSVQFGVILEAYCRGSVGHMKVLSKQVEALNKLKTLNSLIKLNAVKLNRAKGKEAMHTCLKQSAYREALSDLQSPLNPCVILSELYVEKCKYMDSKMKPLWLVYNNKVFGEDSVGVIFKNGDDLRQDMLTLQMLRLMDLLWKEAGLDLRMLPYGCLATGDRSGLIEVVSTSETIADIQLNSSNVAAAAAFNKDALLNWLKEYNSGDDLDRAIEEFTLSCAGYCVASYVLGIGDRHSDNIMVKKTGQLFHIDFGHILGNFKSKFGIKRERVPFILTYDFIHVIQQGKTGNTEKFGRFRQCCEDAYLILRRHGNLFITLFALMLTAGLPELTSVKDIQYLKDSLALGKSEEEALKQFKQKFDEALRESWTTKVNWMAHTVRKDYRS
p110β/p85α, sequence (P27986 2-724 partner): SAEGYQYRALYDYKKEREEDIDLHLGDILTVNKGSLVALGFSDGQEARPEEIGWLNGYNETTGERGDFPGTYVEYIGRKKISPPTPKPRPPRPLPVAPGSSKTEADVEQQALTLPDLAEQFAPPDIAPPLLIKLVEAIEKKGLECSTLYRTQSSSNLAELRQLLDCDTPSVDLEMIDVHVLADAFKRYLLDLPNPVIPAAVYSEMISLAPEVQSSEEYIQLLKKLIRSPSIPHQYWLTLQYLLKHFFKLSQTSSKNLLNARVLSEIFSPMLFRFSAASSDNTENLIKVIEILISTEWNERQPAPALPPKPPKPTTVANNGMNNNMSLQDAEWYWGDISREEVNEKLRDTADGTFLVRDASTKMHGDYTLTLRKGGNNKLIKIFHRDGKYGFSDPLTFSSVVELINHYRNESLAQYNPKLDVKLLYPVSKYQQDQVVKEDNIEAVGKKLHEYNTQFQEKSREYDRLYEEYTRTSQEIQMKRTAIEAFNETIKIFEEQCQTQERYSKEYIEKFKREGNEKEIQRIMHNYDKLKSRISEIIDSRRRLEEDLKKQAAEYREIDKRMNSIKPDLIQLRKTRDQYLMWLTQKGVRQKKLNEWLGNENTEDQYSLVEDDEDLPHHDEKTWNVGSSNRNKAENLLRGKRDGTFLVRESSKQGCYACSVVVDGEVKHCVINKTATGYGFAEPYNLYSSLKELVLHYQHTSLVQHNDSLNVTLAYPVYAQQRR
In short: as §1

p110α/p85α = p110α/p85α (Homo sapiens, UniProt P42336); assay: Transcreener KINASE Assay, kinase inhibition of p110α/p85α; conditions: for PI3Kα IH % @ 1 uM: 1 uM test compound
p110α/p85α, sequence (P42336 whole entry): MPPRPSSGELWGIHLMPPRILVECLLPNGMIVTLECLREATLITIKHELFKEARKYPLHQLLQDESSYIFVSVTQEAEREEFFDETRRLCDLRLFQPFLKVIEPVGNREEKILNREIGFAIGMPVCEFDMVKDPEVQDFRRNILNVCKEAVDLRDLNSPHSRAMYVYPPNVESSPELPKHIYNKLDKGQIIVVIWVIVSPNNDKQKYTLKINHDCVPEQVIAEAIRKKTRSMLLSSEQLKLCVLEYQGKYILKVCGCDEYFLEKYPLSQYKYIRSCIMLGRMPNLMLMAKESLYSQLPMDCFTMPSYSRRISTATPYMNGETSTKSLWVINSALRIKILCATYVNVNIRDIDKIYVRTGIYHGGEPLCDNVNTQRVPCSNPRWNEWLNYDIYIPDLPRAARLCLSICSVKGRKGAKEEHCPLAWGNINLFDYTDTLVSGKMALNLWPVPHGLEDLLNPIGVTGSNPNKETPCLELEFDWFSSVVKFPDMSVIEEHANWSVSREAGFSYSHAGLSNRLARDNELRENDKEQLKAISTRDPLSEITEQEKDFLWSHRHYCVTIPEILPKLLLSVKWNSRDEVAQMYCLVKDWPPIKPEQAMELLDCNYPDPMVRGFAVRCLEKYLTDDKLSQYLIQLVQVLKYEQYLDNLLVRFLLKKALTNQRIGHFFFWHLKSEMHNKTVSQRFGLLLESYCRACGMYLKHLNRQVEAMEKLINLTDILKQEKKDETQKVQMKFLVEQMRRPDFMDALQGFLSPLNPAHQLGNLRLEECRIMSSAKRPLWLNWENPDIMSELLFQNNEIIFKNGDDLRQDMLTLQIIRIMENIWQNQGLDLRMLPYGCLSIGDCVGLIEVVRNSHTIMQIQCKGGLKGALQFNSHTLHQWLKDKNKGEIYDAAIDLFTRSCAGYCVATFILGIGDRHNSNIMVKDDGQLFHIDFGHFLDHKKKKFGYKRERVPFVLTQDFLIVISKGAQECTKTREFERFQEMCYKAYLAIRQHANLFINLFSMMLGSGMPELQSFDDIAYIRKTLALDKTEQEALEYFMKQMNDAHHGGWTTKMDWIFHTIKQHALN
p110α/p85α, sequence (P27986 whole entry partner): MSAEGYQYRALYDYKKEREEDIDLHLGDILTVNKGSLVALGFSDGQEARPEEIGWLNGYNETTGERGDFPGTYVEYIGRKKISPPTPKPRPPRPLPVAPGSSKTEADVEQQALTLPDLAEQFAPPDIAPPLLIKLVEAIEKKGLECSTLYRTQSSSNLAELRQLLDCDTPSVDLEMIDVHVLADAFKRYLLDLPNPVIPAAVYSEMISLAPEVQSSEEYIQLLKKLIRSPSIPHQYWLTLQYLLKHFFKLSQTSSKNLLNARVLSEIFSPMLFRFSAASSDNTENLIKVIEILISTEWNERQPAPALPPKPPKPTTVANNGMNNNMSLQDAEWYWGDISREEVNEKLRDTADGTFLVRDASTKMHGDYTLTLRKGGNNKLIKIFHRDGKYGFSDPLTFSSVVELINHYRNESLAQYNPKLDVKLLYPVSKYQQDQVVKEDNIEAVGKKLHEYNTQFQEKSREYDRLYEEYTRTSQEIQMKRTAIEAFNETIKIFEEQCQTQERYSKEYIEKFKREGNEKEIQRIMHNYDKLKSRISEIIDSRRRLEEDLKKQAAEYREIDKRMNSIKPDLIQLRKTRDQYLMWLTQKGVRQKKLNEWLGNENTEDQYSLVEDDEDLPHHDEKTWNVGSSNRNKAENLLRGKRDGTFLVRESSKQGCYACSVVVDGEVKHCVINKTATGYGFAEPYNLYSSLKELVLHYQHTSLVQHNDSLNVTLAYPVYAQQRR
Experimental: PI3K kinases including p110α/p85α, p110δ/p85α and p110γ are purchased from Invitrogen, and p110β/p85α is from Millipore.
Primary screening data and IC50 values are measured using Transcreener™ KINASE Assay (Bellbrook, Catalog #3003-10K). […] It is a universal, homogenous, high throughput screening (HTS) technology using a far-red, competitive fluorescence polarization immunoassay based on the detection of ADP to monitor the activity of enzymes that catalyze group transfer reactions. Briefly, the Transcreener KINASE Assay is designed as a simple two-part, endpoint assay.
In the first step, the 25 ul kinase reaction is performed by preparing a reaction mixture containing 5 ul test compound (2% DMSO final concentration), 10 ul kinase, buffer (50 mM HEPES, 100 mM NaCl, 1 mM EGTA, 0.03% CHAPS, 3 mM MgCl2, and freshly supplemented 1 mM DTT), and 10 ul 30 uM PIP2/10 uM ATP. The plate is sealed and incubated for 80 min at room temperature. Next, 25 ul ADP detection mix is added per well. The plate is sealed again and incubated for 60 min at room temperature, and then measure fluorescence polarization by Tecan Infinite F500 Reader.
Data is analyzed and IC50s are generated using the add-in software for Microsoft Excel, Xlfit™ (version 2.0). IH %=(ADP amount under 2% DMSO-ADP amount under test compound)/ADP amount under 2% DMSO.

p110γ = p110γ (Homo sapiens, UniProt P48736); assay: Transcreener KINASE Assay, kinase inhibition of p110γ; conditions: for PI3Kγ IH % @ 1 uM: 1 uM test compound; for IC50: read-out: PI3Kγ IC50
In short: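 Homogeneous endpoint format using recombinant enzymes; ADP measured by far-red FP immunoassay after 80 min reaction and 60 min detection, both at room temperature.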

p110δ/p85α, sequence (O00329 whole entry): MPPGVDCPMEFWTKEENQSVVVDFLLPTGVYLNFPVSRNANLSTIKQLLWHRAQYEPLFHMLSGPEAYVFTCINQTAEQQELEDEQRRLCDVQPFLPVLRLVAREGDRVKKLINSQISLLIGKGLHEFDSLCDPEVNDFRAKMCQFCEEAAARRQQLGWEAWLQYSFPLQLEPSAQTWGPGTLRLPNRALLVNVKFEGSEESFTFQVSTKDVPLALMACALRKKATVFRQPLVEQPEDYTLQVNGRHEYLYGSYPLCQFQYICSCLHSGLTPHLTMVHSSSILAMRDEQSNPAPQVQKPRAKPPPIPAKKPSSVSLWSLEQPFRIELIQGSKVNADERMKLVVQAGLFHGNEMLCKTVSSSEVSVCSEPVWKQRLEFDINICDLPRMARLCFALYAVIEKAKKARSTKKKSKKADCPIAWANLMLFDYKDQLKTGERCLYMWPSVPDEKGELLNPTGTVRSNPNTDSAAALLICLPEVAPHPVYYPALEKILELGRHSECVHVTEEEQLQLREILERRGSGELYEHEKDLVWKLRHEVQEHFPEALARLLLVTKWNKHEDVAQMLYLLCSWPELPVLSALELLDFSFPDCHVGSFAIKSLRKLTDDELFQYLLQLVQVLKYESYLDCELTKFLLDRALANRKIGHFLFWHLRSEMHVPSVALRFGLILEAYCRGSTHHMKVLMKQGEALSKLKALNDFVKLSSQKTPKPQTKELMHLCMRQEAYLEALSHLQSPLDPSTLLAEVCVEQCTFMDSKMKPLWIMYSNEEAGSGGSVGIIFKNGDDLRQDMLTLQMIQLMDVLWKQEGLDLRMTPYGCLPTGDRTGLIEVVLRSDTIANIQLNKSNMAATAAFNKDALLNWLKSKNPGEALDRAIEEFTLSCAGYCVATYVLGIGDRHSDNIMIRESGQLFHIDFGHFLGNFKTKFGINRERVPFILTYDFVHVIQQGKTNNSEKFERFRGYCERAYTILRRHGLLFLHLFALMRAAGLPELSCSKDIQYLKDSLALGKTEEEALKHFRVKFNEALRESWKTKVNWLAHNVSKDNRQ
p110δ/p85α, sequence (P27986 whole entry partner): as the sequence (P27986 whole entry partner) above

| Structure (SMILES) | PI3Kδ IH % @ 1 uM (p110δ/p85α) [%] | IC50 (p110δ/p85α) [nM] | PI3Kβ IH % @ 1 uM (p110β/p85α) [%] | IC50 (p110β/p85α) [nM] | PI3Kα IH % @ 1 uM (p110α/p85α) [%] | PI3Kγ IH % @ 1 uM (p110γ) [%] | IC50 (p110γ) [nM] | IC50 (p110α/p85α; read-out: PI3Kα IC50) [nM] |
| --- | --- | --- | --- | --- | --- | --- | --- | --- |
| O=c1c2c(Cl)ccn2nc([C@@H]2C[C@H](F)CN2c2ncnc3[nH]cnc23)n1-c1ccccc1 [Compound 73, 5-chloro-2-((2S,4S)-4-fluoro-1-(9H-purin-6-yl)pyrrolidin-2-yl)-3-phenylpyrrolo[2,1-f][1,2,4]triazin-4(3H)-one] | >100 | 3 | 69.5 | 420 | 33.6 | 92.7 |  |  |
| CC(Nc1nc(N)ncc1C(F)(F)F)c1cn2ccc(Cl)c2c(=O)n1-c1cccc(F)c1 (stereo not drawn) [Compound 84] | >100 | 4 | 59.3 |  | −3.5 | 75.9 | 32 |  |
| CCC(Nc1ncnc2[nH]cnc12)c1cn2ccc(Cl)c2c(=O)n1-c1cccc(F)c1 (stereo not drawn) [Compound 85, 3-(1-(9H-purin-6-ylamino)propyl)-8-chloro-2-(3-fluorophenyl)pyrrolo[1,2-a]pyrazin-1(2H)-one] | >100 | 1 | 74.7 | 311 | 27.4 | 87.8 | 30 |  |
| CCC(Nc1ncnc(N)c1C#N)c1cn2ccc(Cl)c2c(=O)n1-c1cccc(F)c1 (stereo not drawn) [Compound 86] | 99.0 | 2 | 86.5 | 172 | 17.8 | 76.4 | 139 |  |
| Cc1ccn2cc(C(C)Nc3ncnc4[nH]cc(C#N)c34)n(-c3ccccc3)c(=O)c12 (stereo not drawn) [Compound 91] | >100 | 5 | 78.3 | 222 | 48.3 | 93.5 | 34 |  |
| Cc1ccn2cc(C(C)Nc3ncnc4[nH]cnc34)n(-c3ccccc3)c(=O)c12 (stereo not drawn) [Compound 92] | >100 | 3 | 65.2 |  | 31.8 | 95.7 | 20 |  |
| Nc1ccc(-c2c[nH]c3ncnc(N4CC[C@H]4c4nn5ccc(Cl)c5c(=O)n4-c4ccccc4)c23)cn1 [Compound 101] | >100 | 3 | 81.6 | 138 | 47.8 | >100 |  |  |
| CC(Nc1ncnc2[nH]cnc12)c1cc2ccc(Cl)n2c(=O)n1-c1cccc(F)c1 (stereo not drawn) [Compound 127] | 99.2 | 5 | 71.3 | 307 | 7.0 | >100 | 57 |  |
| CC(Nc1ncnc2[nH]cc(C#N)c12)c1cc2ccc(Cl)n2c(=O)n1-c1cccc(F)c1 (stereo not drawn) [Compound 128] | 99.0 | 1 | 87.8 | 86 | 40.3 | 96.2 | 10 |  |
| C[S+]([O-])c1c[nH]c2ncnc(N3CCC[C@H]3c3nn4ccc(Cl)c4c(=O)n3-c3ccccc3)c12 (stereo partly drawn) [Compound 186] | >100 | 1 | >100 | 284 | 28.4 | >100 | 10 |  |
| C[S+]([O-])c1c[nH]c2ncnc(N3CCC[C@H]3c3nn4ccc(Cl)c4c(=O)n3-c3ccccc3)c12 (stereo partly drawn) [Compound 187] | 99.0 | 1 | 84.4 |  | 14.1 | >100 |  |  |
| C[S+]([O-])c1c[nH]c2ncnc(N3CCC[C@H]3c3nn4ccc(Cl)c4c(=O)n3-c3ccccc3)c12 (stereo partly drawn) [Compound 188] | 98.8 |  | 68.7 |  | 14.7 | >100 |  |  |
| Cc1ccn2nc([C@@H]3CCCN3c3ncnc(N)c3C#N)n(-c3ccccc3)c(=O)c12 [Compound 189, (S)-4-amino-6-(2-(5-methyl-4-oxo-3-phenyl-3,4-dihydropyrrolo[2,1-f][1,2,4]triazin-2-yl)pyrrolidin-1-yl)pyrimidine-5-carbonitrile] | 97.5 | 1 | 87.0 | 87 | 54.0 | 89.2 | 15 |  |
| C[S+]([O-])c1c[nH]c2ncnc(N3CCC[C@H]3c3nn4ccc(Cl)c4c(=O)n3-c3ccccc3)c12 (stereo partly drawn) [Compound 197] | >100 | 1 | >100 | 284 | 28.4 | >100 | 10 |  |
| C[S+]([O-])c1c[nH]c2ncnc(N3CCC[C@H]3c3nn4ccc(Cl)c4c(=O)n3-c3cccc(F)c3)c12 (stereo partly drawn) [Compound 198] | >100 | 1 | 82.4 | 323 | 17.4 | >100 | 10 |  |
| CC(=O)c1cnc(N)nc1N1C[C@H](C)[C@H]1c1nn2ccc(Cl)c2c(=O)n1-c1ccc(F)cc1 [Compound 206] | 94 | 7 | >100 | 181 |  | >100 | 1 | 372 |
| N#Cc1c[nH]c2ncnc(N3C[C@@H](F)C[C@H]3c3nn4ccc(Cl)c4c(=O)n3-c3cccc(F)c3)c12 [Compound 213] | >100 | 1 | 85.9 | 88 | 65.2 | >100 | 7 |  |
| CC(=O)c1c[nH]c2ncnc(N3C[C@@H](F)C[C@H]3c3nn4ccc(Cl)c4c(=O)n3-c3ccccc3)c12 [Compound 268] | >100 | 3 | 80.3 | 170 | 38.4 | >100 |  |  |
| CO/N=C(\C)c1c[nH]c2ncnc(N3CCC[C@H]3c3nn4ccc(Cl)c4c(=O)n3-c3ccccc3)c12 [Compound 308] | 99.7 |  | 56.4 |  | 9.7 | 96.7 |  |  |
| O=c1c2c(Cl)ccn2nc([C@@H]2CCCN2c2ncnc3[nH]cnc23)n1-c1ccccn1 [Compound 311] | >100 |  | 79.4 | 379 | 10.1 | >100 | 34 |  |
